The results in this text go back to US20050222127A1, “Use of Rho kinase inhibitors in the treatment of hearing loss, tinnitus and improving body balance” (Alcon, Inc., priority 2004, published 2005).

One experiment deals with T1, Rho kinase (ROCK II) (Homo sapiens, UniProt O75116).
T1 construct: purchased Molecular Devices, Sunnyvale, Calif
As to the kind of experiment: IMAP fluorescence polarization Rho kinase assay (IMAP ROCK II kit). The format is biochemical. To be noted: mean ± SEM; 10 μM ATP, substrate 200 nM, 60 min at 23° C.; read-out: Rho Kinase Inhibition Constants (IC50), IMAP Fluorescence Polarization-Based Assay. The protocol: (§1) Rho kinase activity and inhibition of activity by test compounds in vitro is carried out using a radioactive assay or a fluorescence polarization assay as described herein.
The fluorescence polarization assays are performed using a Biomek 2000 Robotic Workstation (Beckman Instruments, Palo Alto, Calif.) in a 96-well plate format. The assay is performed utilizing the IMAP ROCK II kit (Molecular Devices, Sunnyvale, Calif.) as follows. […] The substrate, enzyme, and ATP dilutions are made with the reaction buffer provided by the vendor. Test compounds are diluted in 10:10 DMSO-ethanol (vol/vol). For the actual assay, the various components are added into black, clear bottom, 96-well plates (Costar, Corning, N.Y.) in a final volume of 20 μl per well. After the enzyme reaction (60 min at 23° C.), 60 μl of the binding solution (IMAP kit provided by vendor) is added per well and incubated for an additional 30 minutes in the dark at 23° C. Fluorescence polarization of the reaction mixtures is then measured on the Analyst™ HT instrument (Molecular Devices, Sunnyvale, Calif.). The data are then analyzed using a non-linear, iterative, sigmoidal-fit computer program purchased from IDBS (Emeryville, Calif.) and as previously described (Sharif et al., ibid.) to generate the inhibition constants for the test compounds.

In experiment [1] the target is T2, Human recombinant Rho kinase (ROKα/ROCK-II, aa 11-552) (Homo sapiens, UniProt O75116).
T2 construct: ROKα/ROCK-II, (aa 11-552), human active, catalog #14-451; purchased Upstate Biotechnology Co., Lake Placid, N.Y. 14-451
T2 sequence (O75116 11-552): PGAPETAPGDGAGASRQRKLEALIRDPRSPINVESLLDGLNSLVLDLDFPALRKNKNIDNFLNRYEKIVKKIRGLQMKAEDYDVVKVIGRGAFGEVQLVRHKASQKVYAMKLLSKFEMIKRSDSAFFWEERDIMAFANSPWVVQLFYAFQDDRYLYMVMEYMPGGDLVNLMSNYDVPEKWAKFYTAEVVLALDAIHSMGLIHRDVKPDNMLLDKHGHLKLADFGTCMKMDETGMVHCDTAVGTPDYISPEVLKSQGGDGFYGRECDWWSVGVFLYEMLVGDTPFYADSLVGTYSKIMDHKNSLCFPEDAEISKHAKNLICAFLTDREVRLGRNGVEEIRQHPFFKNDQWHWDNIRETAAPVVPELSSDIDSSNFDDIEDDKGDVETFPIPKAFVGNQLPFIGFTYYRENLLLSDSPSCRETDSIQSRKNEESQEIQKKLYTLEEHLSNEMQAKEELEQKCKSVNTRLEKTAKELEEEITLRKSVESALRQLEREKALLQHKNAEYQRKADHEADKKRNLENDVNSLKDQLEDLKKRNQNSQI
As to the kind of experiment: [γ-33P]-ATP-based Rho kinase assay. The format is biochemical. Particulars: mean ± SEM; 100 μM ATP, Long S6 substrate peptide 30 μM, 30 min at 30° C.; read-out: Rho Kinase Inhibition Constants (IC50), [γ-33P]-ATP-Based Assay. The protocol:
as §1
The enzyme assays are performed using a Biomek 2000 Robotic Workstation (Beckman Instruments, Palo Alto, Calif.) in a 96-well format using [γ-^33P]-ATP (Perkin-Elmer Life Sciences, Boston, Mass.). Stock [γ-^33P] ATP (3000 Ci/mmol) is diluted to 1 μCi/μl with the MgCl2/ATP cocktail solution. The concentrations of MgCl2/ATP used are 15 mM and 100 μM, respectively. […] The substrate and enzyme are diluted in 20 mM MOPS buffer (pH 7.2), 25 mM β-glycerol phosphate, 5 mM EGTA, 1.0 mM sodium orthovanadate, and 1.0 mM DTT. Test compound dilutions are made in 10:10 dimethyl sulfoxide-ethanol (vol/vol). In the following order, substrate, enzyme, test compound dilution, and [γ-33P]-ATP are added to the 96-well plates for a final volume of 100 μl per well. […] The radioactivity captured on the filter mats is then determined on a beta-counter.

SMILES strings stand for the structures.

T1 sequence (O75116 whole entry, species assumed): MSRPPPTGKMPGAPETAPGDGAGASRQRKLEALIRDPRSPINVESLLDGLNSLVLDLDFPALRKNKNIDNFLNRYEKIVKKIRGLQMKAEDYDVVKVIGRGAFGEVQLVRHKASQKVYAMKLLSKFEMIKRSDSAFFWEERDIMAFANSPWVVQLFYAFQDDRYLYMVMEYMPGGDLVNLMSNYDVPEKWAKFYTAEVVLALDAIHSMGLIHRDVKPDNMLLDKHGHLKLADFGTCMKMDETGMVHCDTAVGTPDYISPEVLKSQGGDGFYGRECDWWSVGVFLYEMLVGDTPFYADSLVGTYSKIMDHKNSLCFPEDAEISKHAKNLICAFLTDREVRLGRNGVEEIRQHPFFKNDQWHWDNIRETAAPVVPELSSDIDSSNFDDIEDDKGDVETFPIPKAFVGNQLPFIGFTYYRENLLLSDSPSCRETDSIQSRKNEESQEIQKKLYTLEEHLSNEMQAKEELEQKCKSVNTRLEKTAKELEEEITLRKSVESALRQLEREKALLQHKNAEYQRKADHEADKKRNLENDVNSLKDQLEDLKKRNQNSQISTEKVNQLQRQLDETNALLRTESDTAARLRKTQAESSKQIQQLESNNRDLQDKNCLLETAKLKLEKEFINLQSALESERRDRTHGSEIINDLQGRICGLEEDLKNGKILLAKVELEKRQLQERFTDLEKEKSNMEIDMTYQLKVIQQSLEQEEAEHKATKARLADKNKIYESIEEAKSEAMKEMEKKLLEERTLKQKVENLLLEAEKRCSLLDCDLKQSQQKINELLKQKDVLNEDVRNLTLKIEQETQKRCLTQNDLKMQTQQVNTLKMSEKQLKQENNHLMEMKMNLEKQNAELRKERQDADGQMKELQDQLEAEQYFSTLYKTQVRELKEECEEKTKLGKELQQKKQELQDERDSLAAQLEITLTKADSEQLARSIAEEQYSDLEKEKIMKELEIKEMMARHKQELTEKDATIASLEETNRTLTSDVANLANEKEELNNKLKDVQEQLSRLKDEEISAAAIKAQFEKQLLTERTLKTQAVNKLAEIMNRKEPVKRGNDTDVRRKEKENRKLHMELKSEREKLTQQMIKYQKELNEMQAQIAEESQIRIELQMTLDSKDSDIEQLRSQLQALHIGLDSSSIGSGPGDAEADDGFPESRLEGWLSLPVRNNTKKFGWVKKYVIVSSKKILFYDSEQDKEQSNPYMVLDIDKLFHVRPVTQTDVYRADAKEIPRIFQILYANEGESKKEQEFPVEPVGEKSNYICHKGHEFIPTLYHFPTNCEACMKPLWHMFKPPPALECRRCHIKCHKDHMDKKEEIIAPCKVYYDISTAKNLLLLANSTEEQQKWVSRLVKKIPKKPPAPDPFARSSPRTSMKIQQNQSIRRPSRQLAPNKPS

What is called IC50 is the concentration at which inhibition is half-maximal. For `CC1CNCCN1S(=O)(=O)c1cccc2cnccc12` (centres unmarked) [B, reference compound], the IC50 came to 913 ± 644 nM on Rho kinase (ROCK II) and 2340 ± 395 nM in experiment [1].

On to `Cc1cncc2cccc(S(=O)(=O)N3CCCN(C)C(C)C3)c12` (centres unmarked) [D], for which the IC50 on Rho kinase (ROCK II) is 270 ± 113 nM; in experiment [1], 3460 ± 1800 nM.

For the compound `Cc1cncc2cccc(S(=O)(=O)N3CCCN(C)CC3C)c12` (centres unmarked) [E], the figures for the IC50 (at Rho kinase (ROCK II); in experiment [1]) were 108 ± 53 nM and 485 ± 207 nM, respectively.

As to `Cc1cncc2cccc(S(=O)(=O)N3CCCNC(C)(C)C3)c12` [F], the values for the IC50 (at Rho kinase (ROCK II); in experiment [1]) were 2010 ± 85 nM and 1510 ± 704 nM, respectively.

Consider `Cc1cncc2cccc(S(=O)(=O)N3CCNC(C)C3)c12` (centres unmarked) [G], for which the values for the IC50 (at Rho kinase (ROCK II); in experiment [1]) were 2390 ± 1260 nM and 2630 ± 307 nM, respectively.

With `CC1CN(S(=O)(=O)c2cccc3cnccc23)CCN1` (centres unmarked) [I, reference compound], the IC50 in experiment [1] turned out to be 6700 ± 900 nM.
